Data on 8 compounds can be found in patent publication US20250320288A1, “METHOD OF TREATING VITILIGO WITH INTERFERON-GAMMA ANTIBODY” (Elixiron Immunotherapeutics (Hong Kong), priority 2022, published 2025).

“Also recorded” adds a separate entry of the source.

Data set [1] concerns primary melanocytes. The data set is described as follows: Melanocyte cell viability after IFN-γ, chemokines, cell death inhibitors or 2A6Q, Day 2 and Day 7. The note with it: for rescue of IFN-γ induced melanocyte cell death (cell viability): melanocytes with IFN-γ, up to seven days. It is filed as cell-based, human. On the procedure:
To determine cell viability of melanocyte after treatment with IFN-γ, CXCL9, CXCL10, CXCL11, at Day 2, and Day 7, the cells were collected and seeded into 96-well plates. After adhesion, cells were treated with IFN-γ (0, 10, 100 ng/ml) with different compounds: 2A6Q, CXCL9, CXCL10, CXCL11, ROS scavenger (NAC), necroptosis inhibitor (NEC-1), pyroptosis inhibitor (VX-765), apoptosis inhibitor (QVD-OPH), Ferroptosis inhibitor (Liproxstaitin-1, Ferrostatin-1, DFO). Cell viability was measured using a CellTiter-Glo luminescent cell viability assay kit (Promega) according to the manufacturer's protocol. The […] of the final reaction product was measured using a luminometer (SpectraMax® iD3 Multi-Mode Microplate Reader (Molecular Devices). After calculation, the viability of control cells was 100%, and all others were normalized to control and shown as relative cell viability (%). Treatment dosage N-acetylcysteine (NAC; 0.05 mM, 1 mM), Necrostatin-1 (NEC-1; 20 μM, 2 μM), Belnacasan (VX-765; 50 μg/mL, 5 μg/mL), Quinoline-Val Asp-Difluorophenoxymethylketone (QVD-OPH; 10 μM, 2 μM), Liproxstaitin-1 (10 μM, 5 μM, 1 μM, 0.05 μM), Ferrostatin-1 (5 μM, 1 μM), Deferoxamine (DFO; 10 μM, […], 1 μM, 0.05 μM), 2A6Q (10 μg/mL), CXCL9 (10 ng/mL, 10 pg/mL), CXCL10 (10 ng/ml, 10 pg/mL), CXCL11(10 ng/mL, 10 pg/mL).

The subject of data set [2] is primary melanocytes. The data set is described as follows: Cell morphology assay in melanocytes. The following applies: primary melanocytes, 7 days of treatment. It is filed as cell-based, human.
The conditions of data set [3]: cited from earlier work.

In the case of `Clc1cccc(CN=C2Nc3ccccc3NC23CCNCC3)c1` [Liproxstatin-1], the “rescue of IFN-γ induced melanocyte cell death (cell viability)” value (“rescue” below) with primary melanocytes [1] is recorded as “can partially rescue”.

In the case of `CC(=O)N[C@@H](CS)C(=O)O` [NAC, N-acetylcysteine], the “rescue” value in the data set with primary melanocytes [1] is “did not find a rescue effect; also recorded: unable to restore”.

In the case of `CN1C(=O)C(Cc2c[nH]c3ccccc23)NC1=S` (centres unmarked) [NEC-1, Necrostatin-1], the “rescue” value with primary melanocytes [1] is “unable to restore”.

Consider `CC(C)[C@H](NC(=O)c1ccc2ccccc2n1)C(=O)N[C@@H](CC(=O)O)C(=O)COc1c(F)cccc1F` [QVDOPH, Quinoline-Val Asp-Difluorophenoxymethylketone], for which the entries for the “rescue” value with primary melanocytes [1] and with primary melanocytes [1] (listed as pan-caspase inhibitor) were “unable to restore” and “unable to rescue”, respectively.

`CCO[C@@H]1OC(=O)C[C@@H]1NC(=O)[C@@H]1CCCN1C(=O)[C@@H](NC(=O)c1ccc(N)c(Cl)c1)C(C)(C)C` [VX-765, Belnacasan]: the “rescue” value in the data set on primary melanocytes [1] was “unable to restore”.

As for “CXCL10: IFN-γ downstream cytokine added to melanocytes”, the “effect on cell viability of melanocytes (individual cytokine)” value in the data set with primary melanocytes [1] (day 7 of treatment) is “not CXCL9, CXCL10, or CXCL11 significantly decreases”.

Consider IFN-α, for which the “morphology change in melanocyte (loss of dendrite, ballooning of cytoplasm)” value in the data set with primary melanocytes [2] is “not IFN-α was found to contributes to morphology change”.

Turning to “NI-0501: another anti-IFN-γ antibody, described in U.S. Pat. No. 7,700,098 B2”, in data set [3] (at all dose groups), the “Key Study Findings: mortalities” value is given as “There were mortalities”. The “Key Study Findings: GI tract infection caused by Shigella sp. and Campylobacter sp.” value in data set [3] (cynomolgus monkey, in vivo) is on record as “infection was confirmed”. Also, the “Key Study Findings: monkeys early sacrificed because of severe clinical signs” value in data set [3] (from 18 monkeys) was 7 monkeys were early.
